Data reported in patent publication US20250161297A1, “COMPOSITIONS AND METHODS FOR INHIBITING FSP1” (THE REGENTS OF THE UNIVERSITY OF CALIFORNIA, priority 2022, published 2025).

Molecular target: T1, recombinant purified FSP1 (Homo sapiens, UniProt Q9BRQ8)
T1 construct: made in house; host or cells: E. coli LOBSTR-BL21 (DE3)
T1 sequence (Q9BRQ8 1-373): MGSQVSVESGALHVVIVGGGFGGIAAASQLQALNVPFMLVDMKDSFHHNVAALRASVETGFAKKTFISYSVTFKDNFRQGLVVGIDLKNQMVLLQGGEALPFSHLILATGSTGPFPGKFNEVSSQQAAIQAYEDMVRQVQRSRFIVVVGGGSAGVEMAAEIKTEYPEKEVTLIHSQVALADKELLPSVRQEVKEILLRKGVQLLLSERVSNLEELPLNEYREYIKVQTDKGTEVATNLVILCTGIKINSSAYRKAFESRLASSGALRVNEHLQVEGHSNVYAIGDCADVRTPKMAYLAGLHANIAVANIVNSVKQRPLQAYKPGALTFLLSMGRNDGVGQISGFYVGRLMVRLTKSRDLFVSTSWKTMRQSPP
Experiment: FSP1 enzyme kinetics with NADH, CoQ-coumarin and CoQ1
Assay type: biochemical
Procedure: FSP1 Kinetics (NADH): To measure FSP1 kinetics, FSEN1 was dissolved and diluted in DMSO, and recombinant purified FSP1 was diluted in PBS. 0.5 μL FSEN1 and 12.5 μL FSP1 were mixed and incubated for 30 minutes in a NBS polystyrene 384-well plate (Corning Ref: 3640) at RT. Vehicle control wells included 0.5 μL DMSO and were absent of any FSEN1. NADH (Millipore Cat: 481913) was then dissolved and diluted in PBS and added to the plate wells. CoQ-Coumarin (Cayman Item: 29554) was dissolved in DMSO, diluted in PBS, and added to the plate wells to start the reaction. Final well volume was 25 μL, and final concentrations were 25 nM FSP1, 10UM CoQ-Coumarin, 1-50 μM NADH, and 50-500 nM FSEN1. […] Reduced CoQ-Coumarin fluorescence (Ex: 405 nm, Em: 475 nm) was measured as read-out of enzymatic product formation on a kinetic cycle with an interval time of 20 seconds at RT. […] Raw data from 3 biological replicates were then plotted and initial slopes were calculated using a linear regression in prism (GraphPad).
FSP1 Kinetics (CoQ-Coumarin): To measure FSP1 kinetics, FSEN1 was dissolved and diluted in DMSO, and recombinant purified FSP1 was diluted in PBS. […] Reduced CoQ-Coumarin fluorescence (Ex: 405 nm, Em: 475 nm) was measured as read-out of enzymatic product formation on a kinetic cycle with an interval time of 15 seconds at RT. […]

change in Kcat (as FSEN1 concentrations increased): decrease in Kcat values | mechanism of FSP1 inhibition (increasing NADH and CoQ-coumarin, Lineweaver-Burke plots parallel): uncompetitive inhibitor
SMILES: COc1ccc(N2CCN(Cc3cn4c(-c5ccc(Br)cc5)nnc4s3)CC2)cc1 [FSEN1]
